Twelve compounds from patent publication US7579374B2, “Agent for improving bone metabolism” (The Nisshin OilliO Group, Ltd., priority 2001, dated 2009) can be followed below.

Format in all cases: cell-based, mice
One assay has as its system osteoclasts. As to the kind of experiment: Bone absorption-inhibitory action in cell co-cultivation system (TRACP activity). More on the design: key to Judged Efficacy (TRACP, t-test relative to the control): ⊚: The test substance shows a considerable inhibitory effect (p < 0.01); ◯: The test substance shows an inhibitory effect (p < 0.05); Δ: The test substance shows only slight or no inhibitory effect (there is not observed any significant difference); X: The test substance shows a bone absorption-promoting effect (there is observed a negativesignificant difference). The note with it: 10 μM test substance; for Judged Efficacy (TRACP, t-test relative to the control): 2 weeks; for TRACP Act.: co-culture 2 weeks with 10 nM Calcitriol and 100 nM Dexamethasone, control 102.8 ± 12.6. The source says: The cell co-culture system used herein means a system in which osteoblasts and hematopoietic cells are subjected to co-culture in the presence of a factor for promoting the formation of osteoclasts and which thus easily permits the analysis of the differentiation process of the osteoclasts (Endocrinology, 1988, 123: 2600-2602). In such a system, osteoclasts are formed and therefore, the degree of osteoclast-formation can be evaluated by the determination of a tartaric acid-resistant acid phosphatase (TRACP) activity in the cell layer as the parameter indicative of the osteoclast.
The test for the confirmation of the bone absorption-inhibitory action of the isoprenoid ester was carried out according to the method disclosed in the literature (Endocrinology, 1988, 123: 2600). The method will be outlined below:
Stroma cells collected from the skull-caps of two-week-old mice according to the method disclosed in the literature (Endocrinology, 1988, 123: 2600) were dispersed in a 10% fetal bovine serum-containing culture base liquid (α-MEM; available from Gibco Company) to a cell density of 5×10^4 cells/mL.
Spleen cells collected from the spleen of 6-week-old ddy male mice according to the method disclosed in the literature (Proc. Natl. Acad. Sci. USA, 1983, 80: 5583) were dispersed in a 10% fetal bovine serum-containing culture base liquid (α-MEM; available from Gibco Company) to a cell density of 5×10^5 cells/mL.
The co-cultivation was carried out in a 5% CO2-containing atmosphere at a temperature of 37° C. using a 10% FBS (fetal bovine serum)-containing culture base liquid (α-MEM; available from Gibco Company). Osteoblast cells were inoculated on a 24-well petri dish at a cell density of 5×10^4 cells/mL/well, spleen cells were then inoculated thereon at a cell density of 5×10^5 cells/mL/well after one day and a solution of a test substance, which had been dissolved in DMSO in a concentration of 10^-2M, was then added to each well in such a manner that the concentration of the test substance was equal to 10 μM. These cells were cultivated in the presence of 10 nM Calcitriol and 100 nM Dexamethasone over 2 weeks while defining the day on which the spleen cells were inoculated as 0th day. In this respect, the culture medium was replaced with fresh one twice a week. After two weeks, the activity of the tartrate-resistant acid phosphatase (hereunder referred to as “TRACP”) in the cell layer was determined, which served as a parameter indicating the number of osteoclasts in the layer.
In the determination of the TRACP activity, there was used a kit of acid phosphatase KII-WAKO (available from WAKO Pure Chemical Co., Ltd.). The culture medium was removed from the Petri dish, 500 μL each of a substrate was added to each well, the resulting cell suspension was heated at 37° C. for 15 minutes, followed by the addition of 500 μL each of a color developing liquid and the determination of the absorbance at a wavelength of 570 nm. The TRACP activity corresponding to each absorbance thus measured was determined using a calibration curve prepared in advance.

Assay [1] deals with MC3T3-E1 cells. As to the kind of experiment: Cell growth rate of osteoblasts in cell culture system. The note with it: 10 μM; for Cell Growth Rate: viable cells after 3 days, relative to control defined as 100. From the text: (§1) In such a system, the osteoblasts are proliferated and the activity of osteoblasts is increased. Therefore, any influence of a substance on the osteoblast-formation can be evaluated by determining, for instance, the rate of cell proliferation and the alkaline phosphatase (ALP) activity as an activity parameter.
(§2) In this Example, there were examined the effects of the chain isoprenoid fatty acid esters on the differentiation and calcium-accumulation of MC3T3-E1 cells or the osteoblasts derived from the skull-caps of mice. A culture medium was added to a 6-well plate in an amount of 2 mL/well, a desired number of MC3T3-E1 cells was inoculated on the medium and the cells were cultivated in a 10% fatal bovine serum-containing base culture liquid (α-MEM, available from Gibco Company) at 37° C. in an atmosphere of 5% CO2. On the day subsequent to the initiation of the cultivation, the culture medium was replaced with the fresh one and simultaneously a solution containing each test sample (the chain isoprenoid fatty acid esters obtained in Preparation Examples 1 to 9) was admixed with and added to the culture medium in an amount of 10 μM for the determination of the cell growth rate and 2.5 μM for the determination of the alkali phosphatase (ALP) activity and the cultivation was continued. The cells for the cell growth rate determination were recovered after 3 days from the initiation of the cultivation and the number of viable cells was counted to determine the cell growth rate. Regarding the other cells, the medium was replaced with fresh one on 5th day of cultivation, the test sample-containing solution was again added and the alkali phosphatase (ALP) activity was determined after the cultivation over one week.
The cell growth rate was calculated as a value relative to the cell growth rate observed for the control (free of any added test sample), which was defined to be 100.

For assay [2], the system named is MC3T3-E1 cells. Kind of assay: Alkaline phosphatase (ALP) activity of osteoblasts in cell culture system. More on the design: key to Judged Efficacy (ALP, t-test relative to the control): ⊚: The test substance shows a considerable inhibitory effect (p < 0.01); ◯: The test substance shows an inhibitory effect (p < 0.05); Δ: The test substance shows only slight or no inhibitory effect (there is not observed any significant difference); X: The test substance shows a bone absorption-promoting effect (there is observed a negativesignificant difference). The following applies: 2.5 μM; for ALP Act.: cultivation over one week, control 71.6 ± 4.6; for Judged Efficacy (ALP, t-test relative to the control): one week.
From the text: as §1, §2
In these experiments, there was used a kit for Alkaline Phospha K-Test WAKO (available from WAKO Pure Chemical Co., Ltd.). A sample used was a suspension of cells obtained by cultivating the same in the presence of each test substance added. A substrate (150 μL) was added to 10 μL of each sample followed by heating at 37° C. for 15 minutes, the addition of 150 μL of a color-developing liquid and determination of the absorbance at 570 nm. The ALP activity corresponding to each absorbance thus measured was determined using a calibration curve prepared in advance.

`CCCCCCCC/C=C\CCCCCCCC(=O)OC/C=C(\C)CC/C=C(\C)CC/C=C(\C)CCC=C(C)C` [Geranyl-geranyl oleate, Geranyl-Geranyl Oleate]: in the assay with osteoclasts, the “Judged Efficacy (TRACP, t-test relative to the control)” value is listed as “⊚ (The test substance shows a considerable inhibitory effect (p < 0.01))” and the “TRACP Act.” value amounted to 16.8 ± 3.4 KA-U/well. For the same compound, the “Cell Growth Rate” value in the assay on MC3T3-E1 cells [1] was 108.3%. In the assay on MC3T3-E1 cells [2], the “ALP Act.” value was 82.8 ± 6.7 KA-U/well and the “Judged Efficacy (ALP, t-test relative to the control)” value was “◯ (The test substance shows an inhibitory effect (p < 0.05))”.
On to `CC(C)=CCC/C(C)=C/CC/C(C)=C/CC/C(C)=C/CC1=C(C)C(=O)c2ccccc2C1=O` [Vitamin K2 (MK-4), reference compound], for which, in the assay with osteoclasts, the “Judged Efficacy (TRACP, t-test relative to the control)” value is recorded as “⊚ (The test substance shows a considerable inhibitory effect (p < 0.01))” and the “TRACP Act.” value worked out at 20.3 ± 4.1 KA-U/well. Moreover, in the assay with MC3T3-E1 cells [1], the “Cell Growth Rate” value was 32.4%. The “Effect on proliferation of osteoblasts (in words)” value in the assay on MC3T3-E1 cells [1] (compared with the control) is “reduces the rate of cell proliferation”. In the assay with MC3T3-E1 cells [2], the “ALP Act.” value is 78.6 ± 3.2 KA-U/well and the “Judged Efficacy (ALP, t-test relative to the control)” value is reported as “◯ (The test substance shows an inhibitory effect (p < 0.05))”.
For `CCCCCCCCCCCCCCCCCC(=O)OC/C=C(\C)CC/C=C(\C)CC/C=C(\C)CCC=C(C)C` [Geranyl-geranyl stearate, Geranyl-Geranyl Stearate], in the assay with osteoclasts, the “Judged Efficacy (TRACP, t-test relative to the control)” value was “⊚ (The test substance shows a considerable inhibitory effect (p < 0.01))” and the “TRACP Act.” value was found to be 25.3 ± 5.2 KA-U/well. In addition, the “Cell Growth Rate” value in the assay with MC3T3-E1 cells [1] amounted to 102.9%. In the assay with MC3T3-E1 cells [2], the “ALP Act.” value was determined as 80.1 ± 5.2 KA-U/well and the “Judged Efficacy (ALP, t-test relative to the control)” value is “◯ (The test substance shows an inhibitory effect (p < 0.05))”.
For the compound `CC1=CC(=O)c2ccccc2C1=O` [Vitamin K3, reference compound], in the assay with osteoclasts, the “Judged Efficacy (TRACP, t-test relative to the control)” value is “◯ (The test substance shows an inhibitory effect (p < 0.05))” and the “TRACP Act.” value stood at 87.9 ± 10.2 KA-U/well. The “Cell Growth Rate” value in the assay with MC3T3-E1 cells [1] was 0.0%. For the same compound, in the assay on MC3T3-E1 cells [2], the “ALP Act.” value is listed as 91.2 ± 11.0 KA-U/well and the “Judged Efficacy (ALP, t-test relative to the control)” value is on record as “◯ (The test substance shows an inhibitory effect (p < 0.05))”.
As to Geranyl-Geranyl Docosahexaenoate, in the assay with osteoclasts, the “Judged Efficacy (TRACP, t-test relative to the control)” value was “⊚ (The test substance shows a considerable inhibitory effect (p < 0.01))” and the “TRACP Act.” value worked out at 18.5 ± 5.8 KA-U/well. Besides, the “Cell Growth Rate” value with MC3T3-E1 cells [1] was 104.8%. Also, in the assay with MC3T3-E1 cells [2], the “ALP Act.” value turned out to be 89.8 ± 6.1 KA-U/well and the “Judged Efficacy (ALP, t-test relative to the control)” value is “⊚ (The test substance shows a considerable inhibitory effect (p < 0.01))”.
Geranyl-Geranyl Conjugated Linoleate: the “Cell Growth Rate” value in the assay on MC3T3-E1 cells [1] was 120.1%. In addition, in the assay with MC3T3-E1 cells [2], the “ALP Act.” value stood at 88.3 ± 4.8 KA-U/well and the “Judged Efficacy (ALP, t-test relative to the control)” value was “⊚ (The test substance shows a considerable inhibitory effect (p < 0.01))”.
Regarding Geranyl Eicosapentaenoate, in the assay with osteoclasts, the “Judged Efficacy (TRACP, t-test relative to the control)” value is “Δ” and the “TRACP Act.” value stood at 87.4 ± 10.3 KA-U/well. Moreover, the “Cell Growth Rate” value in the assay with MC3T3-E1 cells [1] worked out at 121.4%. In the assay on MC3T3-E1 cells [2], the “ALP Act.” value is on record as 87.2 ± 10.6 KA-U/well and the “Judged Efficacy (ALP, t-test relative to the control)” value was “◯ (The test substance shows an inhibitory effect (p < 0.05))”.
As for `CC1=C(C/C=C(\C)CCC[C@H](C)CCC[C@H](C)CCCC(C)C)C(=O)c2ccccc2C1=O` [Vitamin K1, reference compound], in the assay on osteoclasts, the “Judged Efficacy (TRACP, t-test relative to the control)” value is recorded as “◯ (The test substance shows an inhibitory effect (p < 0.05))” and the “TRACP Act.” value worked out at 88.5 ± 8.1 KA-U/well. Moreover, the “Cell Growth Rate” value with MC3T3-E1 cells [1] is recorded as 69.3%. Besides, in the assay on MC3T3-E1 cells [2], the “ALP Act.” value worked out at 76.1 ± 4.9 KA-U/well and the “Judged Efficacy (ALP, t-test relative to the control)” value was “Δ”.
With Farnesyl Eicosapentaenoate, in the assay on osteoclasts, the “Judged Efficacy (TRACP, t-test relative to the control)” value is on record as “Δ” and the “TRACP Act.” value is on record as 96.9 ± 12.7 KA-U/well. The “Cell Growth Rate” value in the assay with MC3T3-E1 cells [1] turned out to be 115.6%. Also, in the assay with MC3T3-E1 cells [2], the “ALP Act.” value turned out to be 85.4 ± 8.4 KA-U/well and the “Judged Efficacy (ALP, t-test relative to the control)” value is on record as “◯ (The test substance shows an inhibitory effect (p < 0.05))”.
For Phytyl Eicosapentaenoate the same measures were “◯ (The test substance shows an inhibitory effect (p < 0.05))”, 84.2 ± 7.1 KA-U/well, 123.4%, 114.6 ± 7.7 KA-U/well and “⊚ (The test substance shows a considerable inhibitory effect (p < 0.01))”.
Consider `CCCCC/C=C\C/C=C\C/C=C\CCCCC(=O)OC/C=C(\C)CC/C=C(\C)CC/C=C(\C)CCC=C(C)C` [Geranyl-Geranyl γ-Linolenate], for which, in the assay on osteoclasts, the “Judged Efficacy (TRACP, t-test relative to the control)” value is reported as “⊚ (The test substance shows a considerable inhibitory effect (p < 0.01))” and the “TRACP Act.” value is 21.7 ± 4.9 KA-U/well. Moreover, in the assay on MC3T3-E1 cells [1], the “Cell Growth Rate” value is 111.4%. In addition, in the assay on MC3T3-E1 cells [2], the “ALP Act.” value stood at 84.4 ± 5.1 KA-U/well and the “Judged Efficacy (ALP, t-test relative to the control)” value is given as “⊚ (The test substance shows a considerable inhibitory effect (p < 0.01))”.
As to `CCC=CCC=CCC=CCC=CCC=CCCCC(=O)OCCC(C)CCCC(C)CCCC(C)CCCC(C)C` (centres unmarked) [Dihydrophytyl Eicosapentaenoate], in the assay on osteoclasts, the “Judged Efficacy (TRACP, t-test relative to the control)” value was “◯ (The test substance shows an inhibitory effect (p < 0.05))” and the “TRACP Act.” value was determined as 83.4 ± 9.4 KA-U/well. Also, the “Cell Growth Rate” value in the assay with MC3T3-E1 cells [1] turned out to be 118.9%. In the assay on MC3T3-E1 cells [2], the “ALP Act.” value is 118.7 ± 8.9 KA-U/well and the “Judged Efficacy (ALP, t-test relative to the control)” value is “⊚ (The test substance shows a considerable inhibitory effect (p < 0.01))”.
